Laboratory results from PMC8252567 (Angewandte Chemie (International Ed. in English), 2021).
Non-standard residues stand in square brackets, D forms with d. Residues, ends and D or L forms follow the SMILES beside them. *: point of attachment. FITC = O=C1OC2(c3ccc(O)cc3Oc3cc(O)ccc32)c2ccc(NC(=S)*)cc21; Nle = CCCC[C@H](N)C(=O)O; AEEA = NCCOCCOCC(=O)O; βAla = NCCC(=O)O

Biological target: T1, full length β-catenin (aa 1-781) (Homo sapiens, UniProt P35222)
T1 sequence (P35222 1-781): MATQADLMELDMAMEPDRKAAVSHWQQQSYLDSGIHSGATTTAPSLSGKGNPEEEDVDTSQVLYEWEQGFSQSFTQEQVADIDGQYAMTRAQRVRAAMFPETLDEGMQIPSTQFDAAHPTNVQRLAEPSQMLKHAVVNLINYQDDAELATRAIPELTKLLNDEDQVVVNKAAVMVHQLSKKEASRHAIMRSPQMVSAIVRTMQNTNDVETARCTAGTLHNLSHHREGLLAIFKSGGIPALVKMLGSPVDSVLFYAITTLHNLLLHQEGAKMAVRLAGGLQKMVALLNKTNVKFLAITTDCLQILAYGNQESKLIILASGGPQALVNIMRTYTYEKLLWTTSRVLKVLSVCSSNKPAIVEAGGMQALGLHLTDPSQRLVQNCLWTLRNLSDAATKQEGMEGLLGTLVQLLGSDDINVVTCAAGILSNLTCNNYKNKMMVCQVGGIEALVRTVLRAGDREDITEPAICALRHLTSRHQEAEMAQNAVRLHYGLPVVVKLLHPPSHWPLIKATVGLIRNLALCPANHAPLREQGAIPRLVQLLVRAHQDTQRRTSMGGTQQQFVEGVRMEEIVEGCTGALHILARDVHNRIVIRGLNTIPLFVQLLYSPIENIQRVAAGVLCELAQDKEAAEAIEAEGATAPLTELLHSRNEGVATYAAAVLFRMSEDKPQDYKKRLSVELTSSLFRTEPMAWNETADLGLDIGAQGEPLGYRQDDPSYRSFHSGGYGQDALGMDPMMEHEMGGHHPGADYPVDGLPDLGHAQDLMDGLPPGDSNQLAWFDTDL
Test: Direct fluorescence polarization
Format: binding

In the case of CCCC[C@H](NC(=O)[C@H](CC(C)C)NC(=O)[C@@H](NC(=O)[C@@H]1CCCN1C(=O)[C@H](C)NC(=O)[C@@H](NC(=O)[C@H](CC(=O)O)NC(=O)[C@H](CC(N)=O)NC(=O)[C@H](CCCNC(=N)N)NC(=O)[C@@H](NC(=O)[C@@H](NC(=O)CCNC(=O)CCNC(=O)[C@H](Cc1ccccc1)NC(=O)[C@@H](NC(=O)[C@H](CC(C)C)NC(=O)[C@H](CC(C)C)NC(=O)[C@H](CO)NC(=O)[C@H](CC(=O)O)NC(=O)COCCOCCNC(=S)Nc1ccc2c(c1)C(=O)OC21c2ccc(O)cc2Oc2cc(O)ccc21)C(C)C)C(C)C)[C@@H](C)O)C(C)C)[C@@H](C)O)C(=O)N[C@@H](CO)C(=O)N[C@H](C(=O)N1CCC[C@H]1C(=O)N[C@@H](CCC(N)=O)C(N)=O)C(C)C [peptide 9] ({FITC-AEEA}-DSLLVF[βAla][βAla]VTRNDVAPTL[Nle]SVPQ-NH2), the Kd is reported as greater than 5 µM.

CC(C)C[C@H](NC(=O)[C@H](CO)NC(=O)[C@H](CC(=O)O)NC(=O)COCCOCCNC(=S)Nc1ccc2c(c1)C(=O)OC21c2ccc(O)cc2Oc2cc(O)ccc21)C(=O)N[C@@H](CC(C)C)C(=O)N[C@H](C(=O)N[C@@H](Cc1ccccc1)C(=O)NCCC(=O)NCCC(=O)N[C@H](C(=O)N[C@H](C(=O)N[C@@H](CCCNC(=N)N)C(=O)N[C@@H](CC(N)=O)C(=O)N[C@@H](CC(=O)O)C(=O)N[C@H](C(N)=O)C(C)C)[C@@H](C)O)C(C)C)C(C)C [peptide 11] ({FITC-AEEA}-DSLLVF[βAla][βAla]VTRNDV-NH2) gave a Kd greater than 5 µM.
